From US20110039762A1, “TARGETED ANTIMICROBIAL MOIETIES” (C3 JIAN, INC., priority 2009, published 2011)
“Also recorded” adds a separate entry of the source.

Legend:
[1] = test system: microorganisms (e.g., bacteria, yeasts, fungi); assay: Targeting peptide binding to target microorganisms (Table 3); conditions: preferably 1x PBS; for Target(s) (microorganisms bound by the targeting peptide): peptide binding in aqueous buffers varied by peptide solubility
S. pneumoniae = assay: Kill or inhibit growth/proliferation; morphology, biofilm and growth disruption (Tables 5, 6); format: cell-based, Streptococcus pneumoniae; set-up: key: A: Peptide aggregates; B: Less hyphal formation; Clumps; Diffuse clumps and small polyps; F: Diffuse growth; H: Thin; I: Growth inhibition; Microcolony formation; Rippled; Small polyps; Thick; W: Halo formation on top, microlonies on bottom; further: test concentration or dose not given here
MRSA = assay: as above; format: cell-based, Methicillin-resistant Staphylococcus aureus; set-up: key: A: Peptide aggregates; B: Less hyphal formation; Clumps; Diffuse clumps and small polyps; F: Diffuse growth; H: Thin; I: Growth inhibition; Microcolony formation; Rippled; Small polyps; Thick; W: Halo formation on top, microlonies on bottom
microorganisms = assay: Peptides having multiple activities (targeting/binding, antimicrobial, growth or phenotype altering)
From the text: In certain embodiments, peptides described herein can have multiple activities. Thus for example, a peptide can have both binding/targeting activity and antimicrobial activity. Such peptides can be used, e.g., in a chimeric construct, for any or all of these properties. Thus, for example, a peptide designated “B” in Table 8 can be used as a targeting peptide. If it is also designated G or M it can also be used for antimicrobial activity.

[2] = microorganism(s) the targeting peptide binds, peptide binding conducted in aqueous buffers varied by peptide solubility
[3] = microorganism the targeting peptide binds, binding in aqueous buffers varied by peptide solubility
[4] = microorganism(s) the targeting peptide binds, binding in aqueous buffers depending on peptide solubility
Wherever Organism, effect (morphology, biofilm and growth disruption) is given: test concentration or dose not given here.
Wherever Organism, effect is given: test concentration or dose not given here.

Substance | Organism, effect (MRSA) | Activities (microorganisms) | Target(s) [1, 3] | Target(s) (microorganisms bound by the targeting peptide) [1] | other results
MQIFYIKTKIFLSFFLFLLIFSQCFYKIEE [PF-442] | MRSA (M) | G B | – | – | Target(s) [1, 2]: S. epidermidis; also recorded: E. coli; also recorded: C. albicans; also recorded: S. pneumoniae; also recorded: E. faecalis; Organism, effect (S. pneumoniae): S. pneumoniae (C)
PF-015: peptide having multiple activities (chain 1 SIDKRNLYNLKYYE; chain 2 SIDKRNLYNLKYYE; Peptide with targeting and/or antimicrobial activity) | MRSA (W) | G B | E. faecalis; also recorded: C. jeikeium | – | –
PF-017: peptide having multiple activities (chain 1 ESIIE; chain 2 ESIIE; Peptide with targeting and/or antimicrobial activity) | MRSA (M) | G B | E. coli | – | –
PF-026: peptide having multiple activities (chain 1 SIHFIN; chain 2 SIHFIN; Peptide with targeting and/or antimicrobial activity) | MRSA (M) | G B | S. epidermidis and M. luteus and P. mirabilis and C. albicans and MRSA and E. faecalis and C. jeikeium | – | –
PF-029: peptide having multiple activities (chain 1 NSTNE; chain 2 NSTNE; Peptide with targeting and/or antimicrobial activity) | MRSA (M) | G B | S. epidermidis; also recorded: M. luteus; also recorded: C. albicans; also recorded: C. jejuni | – | –
PF-031: peptide having multiple activities (chain 1 MPHHSTTSSRIVVPAHQSNMASTPNLSITP; chain 2 MPHHSTTSSRIVVPAHQSNMASTPNLSITP; Peptide with targeting and/or antimicrobial activity) | MRSA (M) | G B | M. luteus; also recorded: C. albicans | – | –
PF-035: peptide having multiple activities (chain 1 SFYESY; chain 2 SFYESY; Peptide with targeting and/or antimicrobial activity) | MRSA (M) | G B | S. epidermidis and M. luteus and E. coli and C. albicans and MRSA and C. jeikeium and C. jejuni | – | –
PF-045: peptide having multiple activities (chain 1 LDINDYRSTY; chain 2 LDINDYRSTY; Peptide with targeting and/or antimicrobial activity) | MRSA (S) | G B | S. epidermidis; also recorded: E. coli; also recorded: E. faecalis; also recorded: C. jejuni | – | –
PF-049: peptide having multiple activities (chain 1 AYYLKRREEKGK; chain 2 AYYLKRREEKGK; Peptide with targeting and/or antimicrobial activity) | MRSA (S) | G B | S. epidermidis and MRSA and C. jeikeium and C. jejuni | – | –
PF-058: peptide having multiple activities (chain 1 FADQSQDNA; chain 2 FADQSQDNA; Peptide with targeting and/or antimicrobial activity) | MRSA (M) | G B | S. epidermidis and M. luteus and E. coli and C. albicans and MRSA and C. jeikeium and C. jejuni | – | –
PF-149: peptide having multiple activities (GKVSVLTRVPRSLGGAPANQ; Peptide with targeting and/or antimicrobial activity) | MRSA (H) | G B | – | – | Target(s) [1, 4]: S. epidermidis and M. luteus and E. coli and MRSA and C. jeikeium
PF-156: peptide having multiple activities (LITAEQPATAPIAGK; Peptide with targeting and/or antimicrobial activity) | MRSA (H) | G B | – | – | Target(s) [1, 4]: S. epidermidis; also recorded: C. jeikeium
PF-354: peptide having multiple activities (chain 1 FTFSKCRASNGRGFGTLWL; chain 2 FTFSKCRASNGRGFGTLWL; Peptide with targeting and/or antimicrobial activity) | MRSA (H) | G B | – | – | –
PF-382: peptide having multiple activities (chain 1 KYKCSWCKRVYTLRKDHKTAR; chain 2 KYKCSWCKRVYTLRKDHKTAR; Peptide with targeting and/or antimicrobial activity) | MRSA (M) | G B | – | – | Target(s) [1, 4]: S. epidermidis; also recorded: B. subtilis; also recorded: B. fragilis; also recorded: E. coli; also recorded: P. aeruginosa; also recorded: E. faecalis; also recorded: C. jeikeium; also recorded: C. jejuni
PF-405: peptide having multiple activities (LVRIEVDDLEEWYERNFI; Peptide with targeting and/or antimicrobial activity) | MRSA (M) | G B | – | – | Target(s) [1, 2]: S. epidermidis; also recorded: E. coli; also recorded: E. faecalis
PF-539: peptide having multiple activities (chain 1 SIILTKKKRRKIPLSIDSQIYKYTFKQ; chain 2 SIILTKKKRRKIPLSIDSQIYKYTFKQ; Peptide with targeting and/or antimicrobial activity) | MRSA (H) | G B | – | – | Organism, effect (S. pneumoniae): S. pneumoniae (A)
PF-551: peptide having multiple activities (chain 1 QVKEKRREIELQFRDAEKKLEASVQAE; chain 2 QVKEKRREIELQFRDAEKKLEASVQAE; Peptide with targeting and/or antimicrobial activity) | MRSA (C) | G B | – | – | Target(s) [1, 2]: S. pneumoniae
PF-630: peptide having multiple activities (chain 1 IPATPIIHS; chain 2 IPATPIIHS; Peptide with targeting and/or antimicrobial activity) | MRSA (M) | G B | – | – | –
PF-642: peptide having multiple activities (chain 1 FTTPMIGIPAGLLGGSYYLKRREEKGK; chain 2 FTTPMIGIPAGLLGGSYYLKRREEKGK; Peptide with targeting and/or antimicrobial activity) | MRSA (M) | G B | – | M. luteus and MRSA and C. jeikeium | –
PF-658 (chain 1 PTTPPPTTPPEIPTGGTVIST; chain 2 PTTPPPTTPPEIPTGGTVIST; Peptide with targeting and/or antimicrobial activity) | – | – | – | Mycobacteria spp | Organism, effect (morphology, biofilm and growth disruption) (S. pneumoniae): S. pneumoniae (H); Organism, effect (morphology, biofilm and growth disruption) (MRSA): MRSA (R)
PF-661 (chain 1 PDEDIRRRAILPPAGPCRPMSPE; chain 2 PDEDIRRRAILPPAGPCRPMSPE; Peptide with targeting and/or antimicrobial activity) | – | – | – | Mycobacteria spp | Organism, effect (morphology, biofilm and growth disruption) (MRSA): MRSA (R)
PF-680 (chain 1 ADPHPTTGI; chain 2 ADPHPTTGI; Peptide with targeting and/or antimicrobial activity) | – | – | – | Mycobacteria spp | Organism, effect (morphology, biofilm and growth disruption) (MRSA): MRSA (R)
PF-692 (chain 1 GVAREDPLEPDPLAPIIDDSR; chain 2 GVAREDPLEPDPLAPIIDDSR; Peptide with targeting and/or antimicrobial activity) | – | – | – | Mycobacteria spp | Organism, effect (morphology, biofilm and growth disruption) (MRSA): MRSA (R)
PF-694 (chain 1 DLIRPLYSMSAPSVA; chain 2 DLIRPLYSMSAPSVA; Peptide with targeting and/or antimicrobial activity) | – | – | – | Mycobacteria spp | Organism, effect (morphology, biofilm and growth disruption) (S. pneumoniae): S. pneumoniae (A); Organism, effect (morphology, biofilm and growth disruption) (MRSA): MRSA (R)
PF-738: peptide having multiple activities (KSGATSAASGAKSGASS; Peptide with targeting and/or antimicrobial activity) | – | G B | – | S. epidermidis; also recorded: C. albicans; also recorded: C. jeikeium | Organism, effect (morphology, biofilm and growth disruption) (MRSA): MRSA (M)
PF-764: peptide having multiple activities (GYFEPGKRD; Peptide with targeting and/or antimicrobial activity) | – | G B | – | S. epidermidis and M. luteus and C. albicans and MRSA and S. pneumoniae and E. faecalis and C. jeikeium | Organism, effect (morphology, biofilm and growth disruption) (S. pneumoniae): S. pneumoniae (H); Organism, effect (morphology, biofilm and growth disruption) (MRSA): MRSA (D)
